Experiments:
[1] = system: total testosterone; assay: Example 3 study in hypogonadal men: morning serum total testosterone (ITT); format: in vivo, human
Protocol: (§1) A randomized, double-blind, placebo controlled, parallel-group study of once-daily doses of fispemifene (100, 200, and 300 mg/day) given for 4 weeks was conducted in a population of hypogonadal men. Subjects were required to meet all of the following inclusion criteria at screening and prior to randomization to be eligible for the study:
(§2) There were 77 subjects total. The number of subjects randomized to the 100 mg fispemifene, 200 mg fispemifene, 300 mg fispemifene, and placebo arms were 21, 21, 19, and 16, respectively.
(§3) Subjects were randomly assigned to one of four treatment groups in a 1:1:1:1 ratio: • Treatment A (100 mg): fispemifene 100 mg+placebo+placebo; • Treatment B (200 mg): fispemifene 100 mg+fispemifene 100 mg+placebo; • Treatment C (300 mg): fispemifene 100 mg+fispemifene 100 mg+fispemifene 100 mg; and • Treatment D (Placebo): placebo+placebo+placebo.
(§4) Subjects took one dose (three capsules) of study medication once a day at home for 4 weeks. Capsules were to be taken in the morning immediately after breakfast, with the exception of the morning of the Week 4 visit. Capsules were not to be taken on the morning of the Week 4 visit because trough plasma levels of fispemifene were determined by a blood sample taken at this visit. Each subject was randomly assigned to treatment with one of the 3 different dose regimens of fispemifene or placebo vehicle. Each subject received a 4 week supply of study drug.
(§5) Blood samples were taken from the subjects within 1 week prior to dosing with study drug to establish baseline values; after 2 and 4 weeks of randomization; and 2 weeks after the last dose of study drug. Serum was prepared from those samples and used to determine the mean % change from baseline in total testosterone, free testosterone, SHBG (sex hormone-binding globulin), DHT (dihydrotestosterone), E2 (estradiol), LH (luteinizing hormone), FSH (follicle stimulating hormone), and inhibin B.
The primary efficacy endpoint was defined as percent change from baseline in morning total testosterone levels at Week 4. The intent-to-treat (“ITT”) population was the primary population for analysis. The secondary efficacy endpoints included:
2. Percent change from baseline in total testosterone levels at Weeks 2 and 6; and […]

[2] = system: testosterone/E2 ratio; assay: Example 3 study in hypogonadal men: testosterone/E2 ratio (ITT); format: in vivo, human; details: for Testosterone/E2 Ratio % Change from Baseline to Week 2, Max / Testosterone/E2 Ratio % Change from Baseline to Week 2, Mean ± SD / Testosterone/E2 Ratio % Change from Baseline to Week 2, Median / Testosterone/E2 Ratio % Change from Baseline to Week 2, Min: Week 2, (Week minus Baseline) divided by Baseline; for Testosterone/E2 Ratio % Change from Baseline to Week 2, Max / Testosterone/E2 Ratio % Change from Baseline to Week 2, Mean ± SD / Testosterone/E2 Ratio % Change from Baseline to Week 2, Median / Testosterone/E2 Ratio % Change from Baseline to Week 2, Min / Testosterone/E2 Ratio % Change from Baseline to Week 4, Max / Testosterone/E2 Ratio % Change from Baseline to Week 4, Mean ± SD / Testosterone/E2 Ratio % Change from Baseline to Week 4, Median / Testosterone/E2 Ratio % Change from Baseline to Week 4, Min / Testosterone/E2 Ratio % Change from Baseline to Week 6, Max / Testosterone/E2 Ratio % Change from Baseline to Week 6, Mean ± SD / Testosterone/E2 Ratio % Change from Baseline to Week 6, Median / Testosterone/E2 Ratio % Change from Baseline to Week 6, Min: LOCF; for Testosterone/E2 Ratio % Change from Baseline to Week 4, Max / Testosterone/E2 Ratio % Change from Baseline to Week 4, Mean ± SD / Testosterone/E2 Ratio % Change from Baseline to Week 4, Median / Testosterone/E2 Ratio % Change from Baseline to Week 4, Min: Week 4, (Week minus Baseline) divided by Baseline; for Testosterone/E2 Ratio % Change from Baseline to Week 6, Max / Testosterone/E2 Ratio % Change from Baseline to Week 6, Mean ± SD / Testosterone/E2 Ratio % Change from Baseline to Week 6, Median / Testosterone/E2 Ratio % Change from Baseline to Week 6, Min: Week 6, (Week minus Baseline) divided by Baseline
Protocol: as §1, §2, §3, §4, §5
3. Percent change from baseline in SHBG, DHT, E2, LH, FSH, inhibin B, and testosterone/E2 ratio at Weeks 2, 4, and 6.

[3] = 300 mg/day, Week 6 (2 weeks after discontinuation)
[4] = 300 mg/day, to Week 6 (2 weeks after discontinuation)

With `OCCOCCOc1ccc(/C(=C(/CCCl)c2ccccc2)c2ccccc2)cc1` [Fispemifene, (Z)-2-{2-[4-(4-Chloro-1,2-diphenylbut-1-enyl)phenoxy]ethoxy}ethanol] the “Total Testosterone, Max” value [1, 3] was 423.0 ng/dL, the “Total Testosterone, Mean ± SD” value [1, 3] was 279.2 ± 102.84 ng/dL and the “Total Testosterone, Median” value [1, 3] was 293.0 ng/dL. For the same compound, the “Total Testosterone, Min” value [1, 3] was 16.0 ng/dL, the “Total Testosterone, % Change from Baseline, Max” value ([1]; 300 mg/day, to Week 2) was 101% and the “Total Testosterone, % Change from Baseline, Median” value ([1]; 300 mg/day, to Week 2) was 65%. The “Total Testosterone, % Change from Baseline, Max” value ([1]; 300 mg/day, to Week 4) was 181%, the “Total Testosterone, % Change from Baseline, Median” value ([1]; 300 mg/day, to Week 4) was 80% and the “Total Testosterone, % Change from Baseline, Max” value [1, 4] was 77%. For the same compound, the “Total Testosterone, % Change from Baseline, Median” value [1, 4] was 14%, the “effect on serum total testosterone concentration” value ([1]; hypogonadal men, within 14 days from the start of treatment, maintained during treatment) was “clinically and statistically significant and dose dependent increase to, but not beyond, the normal range” and the “Testosterone/E2 Ratio % Change from Baseline to Week 2, Max” value ([2]; 100 mg) was 1.21. The “Testosterone/E2 Ratio % Change from Baseline to Week 2, Mean ± SD” value ([2]; 100 mg) was 0.21 ± 0.457, the “Testosterone/E2 Ratio % Change from Baseline to Week 2, Median” value ([2]; 100 mg) was 0.18 and the “Testosterone/E2 Ratio % Change from Baseline to Week 2, Min” value ([2]; 100 mg) was −0.39. The “Testosterone/E2 Ratio % Change from Baseline to Week 4, Max” value ([2]; 100 mg) was 1.57, the “Testosterone/E2 Ratio % Change from Baseline to Week 4, Mean ± SD” value ([2]; 100 mg) was 0.22 ± 0.482 and the “Testosterone/E2 Ratio % Change from Baseline to Week 4, Median” value ([2]; 100 mg) was 0.13. For the same compound, the “Testosterone/E2 Ratio % Change from Baseline to Week 4, Min” value ([2]; 100 mg) was −0.29, the “Testosterone/E2 Ratio % Change from Baseline to Week 6, Max” value ([2]; 100 mg) was 0.411 and the “Testosterone/E2 Ratio % Change from Baseline to Week 6, Mean ± SD” value ([2]; 100 mg) was −0.002 ± 0.1993. The “Testosterone/E2 Ratio % Change from Baseline to Week 6, Median” value ([2]; 100 mg) was 0.029, the “Testosterone/E2 Ratio % Change from Baseline to Week 6, Min” value ([2]; 100 mg) was −0.337 and the “Testosterone/E2 Ratio Actual Value at Baseline (Visit 2), Max” value (shortened to “Testosterone/E2 Ratio Actual Value … Max”) ([2]; 100 mg) was 27.0. The “Testosterone/E2 Ratio Actual Value at Baseline (Visit 2), Mean ± SD” value (“Testosterone/E2 Ratio Actual Value … Mean ± SD” below) ([2]; 100 mg) was 15.2 ± 6.39, the “Testosterone/E2 Ratio Actual Value at Baseline (Visit 2), Median” value (“Testosterone/E2 Ratio Actual Value … Median” below) ([2]; 100 mg) was 14.7 and the “Testosterone/E2 Ratio Actual Value at Baseline (Visit 2), Min” value (“Testosterone/E2 Ratio Actual Value … Min” for short) ([2]; 100 mg) was 5.2. For the same compound, the “Testosterone/E2 Ratio % Change from Baseline to Week 2, Max” value ([2]; 200 mg) was 0.93, the “Testosterone/E2 Ratio % Change from Baseline to Week 2, Mean ± SD” value ([2]; 200 mg) was 0.25 ± 0.418 and the “Testosterone/E2 Ratio % Change from Baseline to Week 2, Median” value ([2]; 200 mg) was 0.19. The “Testosterone/E2 Ratio % Change from Baseline to Week 2, Min” value ([2]; 200 mg) was −0.29, the “Testosterone/E2 Ratio % Change from Baseline to Week 4, Max” value ([2]; 200 mg) was 1.08 and the “Testosterone/E2 Ratio % Change from Baseline to Week 4, Mean ± SD” value ([2]; 200 mg) was 0.18 ± 0.387. The “Testosterone/E2 Ratio % Change from Baseline to Week 4, Median” value ([2]; 200 mg) was 0.17, the “Testosterone/E2 Ratio % Change from Baseline to Week 4, Min” value ([2]; 200 mg) was −0.34 and the “Testosterone/E2 Ratio % Change from Baseline to Week 6, Max” value ([2]; 200 mg) was 0.937. The “Testosterone/E2 Ratio % Change from Baseline to Week 6, Mean ± SD” value ([2]; 200 mg) was 0.019 ± 0.3760, the “Testosterone/E2 Ratio % Change from Baseline to Week 6, Median” value ([2]; 200 mg) was −0.030 and the “Testosterone/E2 Ratio % Change from Baseline to Week 6, Min” value ([2]; 200 mg) was −0.517. The “Testosterone/E2 Ratio Actual Value … Max” value ([2]; 200 mg) was 30.2, the “Testosterone/E2 Ratio Actual Value … Mean ± SD” value ([2]; 200 mg) was 14.2 ± 5.73 and the “Testosterone/E2 Ratio Actual Value … Median” value ([2]; 200 mg) was 14.9. For the same compound, the “Testosterone/E2 Ratio Actual Value … Min” value ([2]; 200 mg) was 6.3, the “Testosterone/E2 Ratio % Change from Baseline to Week 2, Max” value ([2]; 300 mg) was 1.43 and the “Testosterone/E2 Ratio % Change from Baseline to Week 2, Mean ± SD” value ([2]; 300 mg) was 0.21 ± 0.372. For the same compound, the “Testosterone/E2 Ratio % Change from Baseline to Week 2, Median” value ([2]; 300 mg) was 0.15, the “Testosterone/E2 Ratio % Change from Baseline to Week 2, Min” value ([2]; 300 mg) was −0.24 and the “Testosterone/E2 Ratio % Change from Baseline to Week 4, Max” value ([2]; 300 mg) was 1.12. The “Testosterone/E2 Ratio % Change from Baseline to Week 4, Mean ± SD” value ([2]; 300 mg) was 0.33 ± 0.428, the “Testosterone/E2 Ratio % Change from Baseline to Week 4, Median” value ([2]; 300 mg) was 0.36 and the “Testosterone/E2 Ratio % Change from Baseline to Week 4, Min” value ([2]; 300 mg) was −0.53. For the same compound, the “Testosterone/E2 Ratio % Change from Baseline to Week 6, Max” value ([2]; 300 mg) was 0.65, the “Testosterone/E2 Ratio % Change from Baseline to Week 6, Mean ± SD” value ([2]; 300 mg) was 0.12 ± 0.250 and the “Testosterone/E2 Ratio % Change from Baseline to Week 6, Median” value ([2]; 300 mg) was 0.11. The “Testosterone/E2 Ratio % Change from Baseline to Week 6, Min” value ([2]; 300 mg) was −0.29, the “Testosterone/E2 Ratio Actual Value … Max” value ([2]; 300 mg) was 23.1 and the “Testosterone/E2 Ratio Actual Value … Mean ± SD” value ([2]; 300 mg) was 11.5 ± 4.87. The “Testosterone/E2 Ratio Actual Value … Median” value ([2]; 300 mg) was 10.6 and the “Testosterone/E2 Ratio Actual Value … Min” value ([2]; 300 mg) was 1.7.

Reference: patent publication US10500166B2, “Methods for the treatment of erectile dysfunction using fispemifene” (QUATRX PHARMACEUTICALS, priority 2007, dated 2019)
